Results published in patent US8900644B2, “Oral care compositions containing compounds from magnolia and hops extracts” (Colgate-Palmolive Company, priority 2004, dated 2014).

Tests used:
Experiment in all cases: in vitro test Minimal Inhibitory Concentration (MIC)
Assay type in all cases: cell-based
V. parvula = tested on: V. parvula
Source text: (§1) For example, the oral compositions of the present invention are bactericidal against representative oral bacteria, such as S. mutans, F. nucleatum, V. parvula, A. naeslundii, and P. gingivitis as measured by the in vitro test Minimal Inhibitory Concentration (MIC). The oral composition of the present invention is applied to the oral surfaces in the oral cavity, and promotes overall oral health, including preventing plaque formation, caries formation, calculus formation, halitosis, gingivitis, and periodontitis, for example. For example, in an embodiment of the present invention, where an oral care composition comprises an orally acceptable delivery carrier and a safe and effective amount of the combination of an extract of hops and an extract of magnolia, it has been observed that the antibacterial activity is highly efficacious against both gram-positive and gram-negative bacteria.
(§2) It should be noted that any plant from the Magnoliaceae family is suitable for the present invention and may be used in alternate embodiments. Preferably such that the extract comprises an antimicrobially effective concentration of a compound selected from the group consisting of magnolol, honokiol, tetrahydromagnolol, tetrahydrohonokiol, and mixtures thereof.

P. gingivitis = tested on: P. gingivitis
Source text: as §1, §2

F. nucleatum = tested on: F. nucleatum
Source text: as §1, §2

A. naeslundii = tested on: A. naeslundii
Source text: as §1, §2

S. mutans = tested on: S. mutans
Source text: as §1, §2

Measured: bactericidal properties in Minimal Inhibitory Concentration (MIC) test

C=CCc1ccc(O)c(-c2ccc(O)c(CC=C)c2)c1 [honokiol]
bactericidal: V. parvula | P. gingivitis | F. nucleatum | A. naeslundii | S. mutans

CCCc1ccc(O)c(-c2ccc(O)c(CCC)c2)c1 [tetrahydrohonokiol]
bactericidal: V. parvula | P. gingivitis | F. nucleatum | A. naeslundii | S. mutans

C=CCc1ccc(O)c(-c2cc(CC=C)ccc2O)c1 [magnolol]
bactericidal: V. parvula | P. gingivitis | F. nucleatum | A. naeslundii | S. mutans

CCCc1ccc(O)c(-c2cc(CCC)ccc2O)c1 [tetrahydromagnolol]
bactericidal: V. parvula | P. gingivitis | F. nucleatum | A. naeslundii | S. mutans
